The values that follow come from US20190352276A1, “INHIBITORS OF BRUTON'S TYROSINE KINASE” (Joint Stock Company "Biocad", priority 2016, published 2019).

As a reminder, the IC50 is the concentration that inhibits the measured activity by half. As a reminder, the CC50 is the concentration at which the toxic effect on the cells reaches its halfway point. Low readings indicate greater toxicity to the cells, high ones lower toxicity to the cells.

The target in one data set is T1, EGFR (Homo sapiens, UniProt P00533).
T1 construct: purchased SignalChem E10-11G
T1 sequence (P00533 672-1210 limits assumed): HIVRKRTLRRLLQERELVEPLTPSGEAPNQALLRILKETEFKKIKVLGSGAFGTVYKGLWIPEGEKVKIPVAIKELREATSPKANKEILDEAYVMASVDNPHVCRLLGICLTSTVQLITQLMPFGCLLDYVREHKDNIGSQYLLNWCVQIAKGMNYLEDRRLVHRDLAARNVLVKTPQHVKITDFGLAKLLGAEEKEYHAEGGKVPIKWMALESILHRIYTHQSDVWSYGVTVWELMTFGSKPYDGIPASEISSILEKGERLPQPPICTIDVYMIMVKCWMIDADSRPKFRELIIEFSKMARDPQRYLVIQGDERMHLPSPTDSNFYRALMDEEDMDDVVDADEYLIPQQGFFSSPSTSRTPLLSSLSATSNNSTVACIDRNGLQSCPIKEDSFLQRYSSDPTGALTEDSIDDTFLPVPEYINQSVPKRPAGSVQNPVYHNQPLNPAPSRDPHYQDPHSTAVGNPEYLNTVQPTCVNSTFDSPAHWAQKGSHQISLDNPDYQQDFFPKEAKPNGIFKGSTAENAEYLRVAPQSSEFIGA
In words: In vitro kinase panel: EGFR. It is filed as biochemical. Conditions: Table 9 kinase panel. The procedure:
The measurements were carried out in a 25 μL reaction volume using a 96-well plate (Corning, #3642). The kinase enzyme and inhibitor were pre-incubated for 10 minutes in the reaction buffer containing 25 mM of MOPS (pH 7.2), 12.5 mM of 0-glycerophosphate, 27 mM of MgCl2, 2 mM of MnCl2, 5 mM of EGTA, 2 mM of EDTA, 0.3 mM of DTT, and 1.2 mg/mL of bovine serum albumin. Staurosporine (Abcam Biochemicals, ab146588) was used as a reference inhibitor and 0.1% DMSO in the reaction buffer—as a negative control. The solution of 0.5 mg/mL peptide substrate and 50 &M ATP in the same buffer were added; the solution was incubated for 180 minutes at 37° C. To detect the amount of ATP taken up during the kinase reaction, the equivalent amount of ADP (from the ADP Glo Detection Kit (Promega, #V9101)) was used according to the protocol. The reaction mixture was equilibrated to room temperature. 25 µL of ADP-Glo Reagent were added into each well; the plate was incubated for 40 minutes. 50 μL of Kinase Detection Reagent were added; the plate was incubated for 30 minutes. The luminescence was measured with multimode plate reader (Tecan Infinite M200Pro, Switzerland). IC50 values were calculated using Magellan 7.2 software (Tecan, Switzerland) approximating experimental points by four-parameter logistic model with the optimization by Levenberg-Marquardt.
For active compounds selected by screening using the target enzyme BTK, the values of IC50 were determined on a kinase panel: EGFR (SignalChem, #E10-11G), ITK (SignalChem, #I13-10G) and TEC (SignalChem, #T03-10G).

The test system of data set [1] is Mino (mantle cell lymphoma). In words: Antiproliferative activity, Mino cells (Alamar Blue). It is filed as cell-based. The following applies: Homo sapiens. In outline: (§1)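 Viability is measured with Alamar Blue after the lymphoma cells have spent 72 h with test compounds at 37 °C under 5% CO2. Roughly 3*10^4 cells are seeded per well in serum-supplemented RPMI-1640. Fluorescence is read at 540/590 nm, and IC50 is derived by four-parameter logistic regression.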
A general note: Alamar Blue is a resazurin reagent that responds to reducing activity.

Data set [2] has as its system Z-138 (mantle cell lymphoma). Nature of the data set: Antiproliferative activity, Z-138 cells (Alamar Blue). Format: cell-based. Conditions: Homo sapiens. In outline:
as §1

For data set [3], the system named is DOHH2 (follicular lymphoma). In words: Antiproliferative activity, DOHH2 cells (Alamar Blue). Conditions: Homo sapiens, DOHH-2, Table 10, 72 h, average of several tests. It is filed as cell-based. In outline:
as §1

The nature of data set [4]: General cytotoxicity on HepG2 cells (CC50; therapeutic index CC50 HepG2/IC50 Mino). Format: cell-based. The following applies: human, HepG2 cells (hepatocellular carcinoma), 72 hours, Alamar Blue. The gist of the method:
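Alamar Blue viability after 72 h exposure to compounds (final 200 μM–4 μM) gave CC50; HepG2 plated 2*10^4/well in DMEM 24 h beforehand. Therapeutic index expressed as ratio of HepG2 CC50 to Mino antiproliferative IC50.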

The nature of data set [5]: Chemical stability in artificial gastric fluid (SGF without enzymes). Conditions: 10 μM in SGF without enzymes, pH=1.4, 37° C.
Setting [6] is: Table 10, 72 h, average of several tests.
Where [7] appears, read: Table 10, average of several tests.

Molecules are shown by their SMILES. Where only a bound is given, the exact number is not on record here.

Regarding `C=CC(=O)N1CCC[C@@H](n2nc(-c3ccc(C(=O)Nc4ccccn4)cc3)c3cncc(Cl)c32)C1` [BCD-BTK-201], the IC50 against EGFR came to 0.172 µM; in data set [1] (setting [6]) it was 11.9 µM; in data set [2] (setting [6]) it was 6.54 µM; in data set [3], 7.97 µM. This compound also showed a CC50 at 72 h in data set [4] (setting [7]) of over 50 µM.
On the same counts, the results for `C=CC(=O)N1CCC[C@@H](n2nc(-c3ccc(C(=O)Nc4cc(C(F)(F)F)ccn4)cc3)c3c(N)ncc(Cl)c32)C1` [BCD-BTK-251, (R)-4-(1-(1-acryloylpiperidin-3-yl)-4-amino-7-chloro-1H-pyrazolo[4,3-c]pyridin-3-yl)-N-(4-(trifluoromethyl)pyridin-2-yl)benzamide] are 0.00883 µM, 3.65 µM, 4.46 µM, 3.38 µM and over 50 µM.
In the case of `C=CC(=O)N1CCC[C@@H](n2nc(-c3ccc(C(=O)Nc4cc(C(F)(F)CCC)ccn4)cc3)c3cncc(Cl)c32)C1` [BCD-BTK-252, (R)-4-(1-(1-acryloylpiperidin-3-yl)-7-chloro-1H-pyrazolo[4,3-c]pyridin-3-yl)-N-(4-(1,1-difluorobutyl)pyridin-2-yl)benzamide], the IC50 is over 0.5 µM on EGFR, 4.46 µM in data set [1] (setting [6]), 14.9 µM in data set [2] (setting [6]) and 19.6 µM in data set [3]. The CC50 at 72 h in data set [4] (setting [7]) was over 100 µM.
On to `C=CC(=O)N1CCC[C@@H](n2nc(-c3ccc(Oc4ccncc4)cc3)c3c(N)ncc(OC)c32)C1` [BCD-BTK-239, (R)-1-(1-acryloylpiperidin-3-yl)-4-amine-7-methoxy-3-(4-(pyridin-4-yloxy)phenyl)-1H-pyrazolo[4,3-c]pyridine], for which the IC50 against EGFR came to 0.0105 µM; in data set [1] (setting [6]), 14.2 µM; in data set [2] (setting [6]), 16 µM; in data set [3], 8.18 µM. In data set [4] (setting [7]), this compound gave a CC50 at 72 h of 60.2 µM. In addition, in data set [5], the “Amount of substance in the sample in % (chemical stability)” value (“Amount of substance in the sample in %” below) worked out at 100%.
Consider `C=CC(=O)N1CCC[C@@H](n2nc(-c3ccc(Oc4cccnc4C#N)cc3)c3cncc(F)c32)C1` [BCD-BTK-230, (R)-3-(4-(1-(1-acryloylpiperidin-3-yl)-7-fluoro-1H-pyrazolo[4,3-c]pyridin-3-yl)phenoxy)picolinonitrile], for which the IC50 at EGFR is over 0.5 µM; in data set [1] (setting [6]) it was 9.81 µM; in data set [2] (setting [6]), 14.4 µM; in data set [3], 14.9 µM. The compound further had a CC50 at 72 h in data set [4] (setting [7]) of 57.6 µM. Further, the “Amount of substance in the sample in %” value in data set [5] is listed as 99.9%.
Take `C=CC(=O)N1CCC[C@@H](n2nc(-c3cnc(C(=O)Nc4cc(C(F)(F)CCC)ccn4)nc3)c3cncc(Cl)c32)C1` [BCD-BTK-292, (R)-5-(1-(1-acryloylpiperidin-3-yl)-7-chloro-1H-pyrazolo[4,3-c]pyridin-3-yl)-N-(4-(1,1-difluorobutyl)pyridin-2-yl)pyrimidine-2-carboxamide]: the IC50 against EGFR is over 0.5 µM; in data set [1] (setting [6]), 3.35 µM; in data set [2] (setting [6]), over 50 µM; in data set [3], 20.7 µM. The same compound gave a CC50 at 72 h in data set [4] (setting [7]) of over 100 µM.
As for `C=CC(=O)N1CCC[C@@H](n2nc(-c3ccc(Oc4cccnc4C(N)=O)cc3)c3cncc(Cl)c32)C1` [BCD-BTK-220, 3-(4-{7-chloro-1-[(3R)-1-(prop-2-enoyl)piperidin-3-yl]-1H-pyrazolo[4,3-c]pyridin-3-yl}phenoxy)pyridine-2-carboxamide], the IC50 at EGFR is 0.82 µM; in data set [1] (setting [6]) it was 10.5 µM; in data set [2] (setting [6]) it was 14.2 µM; in data set [3] it was 9.46 µM. In addition, in data set [4] (setting [7]), the CC50 at 72 h is over 50 µM. For the same compound, in data set [5], the “Amount of substance in the sample in %” value is 100%.
Take `C=CC(=O)N1CCC[C@@H](n2nc(-c3ccc(C(=O)Nc4ncccc4F)cc3)c3c(N)ncc(C#N)c32)C1` [BCD-BTK-258, 4-{4-amino-7-cyano-1-[(3R)-1-(prop-2-enoyl)piperidin-3-yl]-1H-pyrazolo[4,3-c]pyridin-3-yl}-N-(3-fluoropyridin-2-yl)benzamide]: the IC50 against EGFR was 0.0186 µM; in data set [1] (setting [6]), 17.3 µM; in data set [2] (setting [6]) it was 35.8 µM; in data set [3] it was 15.1 µM. This compound also returned a CC50 at 72 h in data set [4] (setting [7]) of over 50 µM. Also, in data set [5], the “Amount of substance in the sample in %” value turned out to be 100%.
Take `C=CC(=O)N1CCC[C@@H](n2nc(-c3ccc(Oc4ccncc4)cc3)c3cncc(Cl)c32)C1` [BCD-BTK-125, (R)-1-(1-acryloylpiperidin-3-yl)-7-chloro-3-(4-(pyridin-4-yloxy)phenyl)-1H-pyrazolo[4,3-c]pyridine]: the IC50 against EGFR was over 1 µM; in data set [1] (Table 11, 72 h) it was 7.3 µM; in data set [2] (Table 11, 72 h), 14.6 µM. The same compound showed a CC50 at 72 h in data set [4] (Table 11) of 27.1 µM.
In the case of `C=CC(=O)N1CCC[C@@H](n2nc(-c3ccc(Oc4ccncc4C#N)cc3)c3cncc(Cl)c32)C1` [BCD-BTK-202, (R)-4-(4-(1-(1-acryloylpiperidin-3-yl)-7-chloro-1H-pyrazolo[4,3-c]pyridin-3-yl)phenoxy)nicotinonitrile], the IC50 was over 0.5 µM against EGFR, 7.79 µM in data set [1] (setting [6]), 12.6 µM in data set [2] (setting [6]) and 8.87 µM in data set [3]. The compound also registered a CC50 at 72 h in data set [4] (setting [7]) of 32 µM.
Consider `C=CC(=O)N1CCC[C@@H](n2nc(-c3ccc(Oc4ccncc4)cc3)c3c(N)ncc(Cl)c32)C1` [BCD-BTK-139, (R)-1-(1-acryloylpiperidin-3-yl)-7-chloro-3-(4-(pyridin-4-yloxy)phenyl)-1H-pyrazolo[4,3-c]pyridin-4-amine], for which the IC50 worked out at 0.0488 µM against EGFR; 10.2 µM in data set [1] (Table 11, 72 h); 21.1 µM in data set [2] (Table 11, 72 h). For the same compound, it took 39.6 µM to reach half-maximal cytotoxicity in data set [4] (Table 11) (CC50 at 72 h).
In the case of `C=CC(=O)N1CCC[C@@H](n2nc(-c3ccc(C(=O)Nc4ccccn4)cc3)c3c(N)nccc32)C1` [BCD-BTK-242, (R)-4-(1-(1-acryloylpiperidin-3-yl)-4-amino-1H-pyrazolo[4,3-c]pyridin-3-yl)-N-(pyridin-2-yl)benzamide], the IC50 against EGFR is 0.00132 µM; in data set [1] (setting [6]), 17.3 µM; in data set [2] (setting [6]) it was 16.5 µM; in data set [3], 8.38 µM. The midpoint of cytotoxicity in data set [4] (setting [7]), the CC50 at 72 h, lay at 52.5 µM. The “Amount of substance in the sample in %” value in data set [5] worked out at 100%.
With `C=CC(=O)N1CCC[C@@H](n2nc(-c3ccc(C(=O)Nc4ccccn4)cc3)c3c(N)ncc(C#N)c32)C1` [BCD-BTK-234, (R)-4-(1-(1-acryloylpiperidin-3-yl)-4-amino-7-cyano-1H-pyrazolo[4,3-c]pyridin-3-yl)-N-(pyridine-2-yl)benzamide], the IC50 on EGFR was determined as 0.0018 µM; in data set [1] (setting [6]), 9.6 µM; in data set [2] (setting [6]) it was 16.8 µM; in data set [3], 8.87 µM. In data set [4] (setting [7]), the CC50 at 72 h is 36.6 µM. Moreover, in data set [5], the “Amount of substance in the sample in %” value is given as 100%.
Regarding `C=CC(=O)N1CCC[C@@H](n2nc(-c3ccc(C(=O)Nc4ccccn4)cc3)c3c(N)ncc(OC)c32)C1` [BCD-BTK-240, (R)-4-(1-(1-acryloylpiperidin-3-yl)-4-amino-7-methoxy-1H-pyrazolo[4,3-c]pyridin-3-yl)-N-(pyridin-2-yl)benzamide], the IC50 against EGFR is 0.00241 µM; in data set [1] (setting [6]), 14.1 µM; in data set [2] (setting [6]), 10.5 µM; in data set [3] it was 2 µM. Also, the CC50 at 72 h in data set [4] (setting [7]) was over 100 µM. Further, the “Amount of substance in the sample in %” value in data set [5] turned out to be 100%.
